These results are taken from ChEMBL document CHEMBL1201862, “PubChem BioAssay data set” (2004).

For one experiment, the target named is Genome polyprotein (dengue virus type 2, UniProt P29990). The experiment is described as follows: Dengue-2 NS5 methyltransferase inhibitors, primary screen, biochemical, confirmation dose response (AID 588689). The class given is functional.
Experiment [1] addresses T1, Carboxy-terminal domain RNA polymerase II polypeptide A small phosphatase 1 (Homo sapiens, UniProt Q9GZU7).
T1 sequence (Q9GZU7 whole entry): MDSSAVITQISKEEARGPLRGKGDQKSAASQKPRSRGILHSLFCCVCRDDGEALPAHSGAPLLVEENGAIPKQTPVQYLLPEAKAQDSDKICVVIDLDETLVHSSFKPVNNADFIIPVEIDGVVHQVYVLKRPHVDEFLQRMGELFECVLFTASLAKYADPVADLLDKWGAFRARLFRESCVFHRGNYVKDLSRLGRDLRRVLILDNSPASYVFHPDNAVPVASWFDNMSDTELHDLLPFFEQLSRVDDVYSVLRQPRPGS
As to the kind of experiment: inhibitors of CTDSP1, concentration-response testing, biochemical assay, absorbance-based, actives from ultra-high-throughput screening (AID 540297). The class given is functional.

In experiment [2] the target is Envelope glycoprotein gp160 (Human immunodeficiency virus 1, UniProt Q6QLK5). As to the kind of experiment: inhibitors of HIV fusion peptide binding, primary screen, biochemical, uHTS, fluorescence dequenching (AID 1986).
Sequence of Envelope glycoprotein gp160 (Q6QLK5 whole entry, the tested form may be a part): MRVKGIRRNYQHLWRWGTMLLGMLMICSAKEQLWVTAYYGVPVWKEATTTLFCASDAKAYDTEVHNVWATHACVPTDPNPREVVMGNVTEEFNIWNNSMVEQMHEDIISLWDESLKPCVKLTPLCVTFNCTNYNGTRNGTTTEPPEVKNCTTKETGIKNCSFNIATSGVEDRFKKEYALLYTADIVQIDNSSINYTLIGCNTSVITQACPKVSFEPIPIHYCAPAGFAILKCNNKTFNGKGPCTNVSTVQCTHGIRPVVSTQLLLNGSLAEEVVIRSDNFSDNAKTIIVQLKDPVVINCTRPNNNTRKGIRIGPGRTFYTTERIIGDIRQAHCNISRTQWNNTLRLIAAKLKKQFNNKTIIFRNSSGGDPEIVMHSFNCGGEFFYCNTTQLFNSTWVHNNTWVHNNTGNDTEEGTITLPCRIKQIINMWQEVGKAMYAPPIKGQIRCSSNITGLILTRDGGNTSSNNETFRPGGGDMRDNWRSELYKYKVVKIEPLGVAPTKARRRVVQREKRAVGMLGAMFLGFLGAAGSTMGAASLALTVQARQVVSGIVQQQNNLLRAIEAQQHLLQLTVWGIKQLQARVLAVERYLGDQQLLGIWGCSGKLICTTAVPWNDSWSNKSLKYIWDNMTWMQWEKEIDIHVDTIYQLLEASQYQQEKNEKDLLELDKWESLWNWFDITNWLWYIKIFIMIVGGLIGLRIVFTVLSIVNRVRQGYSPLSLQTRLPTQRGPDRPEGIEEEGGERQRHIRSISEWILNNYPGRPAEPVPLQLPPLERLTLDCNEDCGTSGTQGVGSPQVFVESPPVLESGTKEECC
In experiment [3] the target is DNA dC->dU-editing enzyme APOBEC-3A (Homo sapiens, UniProt P31941). As to the kind of experiment: Dose Response confirmation of small molecule APOBEC3A DNA Deaminase Inhibitors via a fluorescence-based single-stranded DNA deaminase assay. [Related pubchem assays (depositor defined):AID493011, AID493024]. The experiment is classed as functional.
Sequence of DNA dC->dU-editing enzyme APOBEC-3A (P31941 whole entry): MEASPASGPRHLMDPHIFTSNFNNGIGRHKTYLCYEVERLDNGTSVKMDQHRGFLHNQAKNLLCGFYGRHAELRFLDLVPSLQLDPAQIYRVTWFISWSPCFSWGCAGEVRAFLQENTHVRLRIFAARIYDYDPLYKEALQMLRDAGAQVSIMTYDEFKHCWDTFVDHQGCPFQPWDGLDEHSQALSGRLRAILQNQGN
For experiment [4], the target named is DNA dC->dU-editing enzyme APOBEC-3G (Homo sapiens, UniProt Q9HC16). The class given is functional.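 Note: Dose-response counterscreen measuring inhibition of APOBEC3G DNA deaminase activity, run while confirming APOBEC3A inhibitors.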
Sequence of DNA dC->dU-editing enzyme APOBEC-3G (Q9HC16 whole entry): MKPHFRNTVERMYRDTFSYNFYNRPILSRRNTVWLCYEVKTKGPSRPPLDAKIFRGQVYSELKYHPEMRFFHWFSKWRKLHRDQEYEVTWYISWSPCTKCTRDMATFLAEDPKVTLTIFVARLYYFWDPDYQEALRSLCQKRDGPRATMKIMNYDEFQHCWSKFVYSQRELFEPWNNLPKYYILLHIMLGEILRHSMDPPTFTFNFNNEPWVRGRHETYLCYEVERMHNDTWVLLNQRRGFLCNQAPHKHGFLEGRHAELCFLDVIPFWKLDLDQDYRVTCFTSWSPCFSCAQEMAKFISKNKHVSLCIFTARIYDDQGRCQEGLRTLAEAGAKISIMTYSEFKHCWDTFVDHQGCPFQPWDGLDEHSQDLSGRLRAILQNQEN
Experiment [5] addresses T2, Probable nicotinate-nucleotide adenylyltransferase (Staphylococcus aureus (strain N315), UniProt P65502). The experiment is classed as functional, Staphylococcus aureus subsp. aureus N315.
For experiment [6], the target named is T2, Probable nicotinate-nucleotide adenylyltransferase. The experiment is classed as functional, Staphylococcus aureus subsp. aureus N315. To be noted: read-out: IC50_Mean.
A further experiment concerns the target T3, Aminopeptidase N (Plasmodium falciparum FcB1/Columbia, UniProt O96935).
T3 sequence (O96935 whole entry): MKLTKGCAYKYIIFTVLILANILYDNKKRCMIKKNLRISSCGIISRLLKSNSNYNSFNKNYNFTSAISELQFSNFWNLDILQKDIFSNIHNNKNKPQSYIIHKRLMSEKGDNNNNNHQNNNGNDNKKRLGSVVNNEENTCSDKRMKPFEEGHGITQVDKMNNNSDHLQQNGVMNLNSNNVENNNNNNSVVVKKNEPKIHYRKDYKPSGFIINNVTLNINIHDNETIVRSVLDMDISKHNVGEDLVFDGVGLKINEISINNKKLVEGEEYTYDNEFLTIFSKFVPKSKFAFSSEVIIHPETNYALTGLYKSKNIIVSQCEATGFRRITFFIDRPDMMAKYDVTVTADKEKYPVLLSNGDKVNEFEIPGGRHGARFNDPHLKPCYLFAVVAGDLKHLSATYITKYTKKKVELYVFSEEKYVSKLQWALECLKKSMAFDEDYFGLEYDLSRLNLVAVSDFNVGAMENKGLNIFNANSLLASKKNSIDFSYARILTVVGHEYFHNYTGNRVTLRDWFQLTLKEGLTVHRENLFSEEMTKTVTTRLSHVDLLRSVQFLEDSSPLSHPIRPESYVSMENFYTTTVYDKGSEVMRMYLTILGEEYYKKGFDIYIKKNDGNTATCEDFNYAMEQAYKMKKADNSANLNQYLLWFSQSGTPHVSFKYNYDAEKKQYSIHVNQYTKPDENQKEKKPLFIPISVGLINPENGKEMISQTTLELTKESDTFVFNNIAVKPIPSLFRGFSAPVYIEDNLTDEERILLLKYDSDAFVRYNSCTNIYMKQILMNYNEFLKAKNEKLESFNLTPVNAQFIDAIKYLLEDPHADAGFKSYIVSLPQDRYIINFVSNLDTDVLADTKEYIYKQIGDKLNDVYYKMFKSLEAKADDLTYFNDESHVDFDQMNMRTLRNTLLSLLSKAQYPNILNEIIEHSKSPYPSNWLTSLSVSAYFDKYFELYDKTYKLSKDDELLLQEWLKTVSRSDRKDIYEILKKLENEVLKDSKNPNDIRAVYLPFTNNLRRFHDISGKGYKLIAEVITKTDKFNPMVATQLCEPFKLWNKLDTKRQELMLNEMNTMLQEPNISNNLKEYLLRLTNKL
The experiment is described as follows: P. falciparum M1AAP inhibitors, biochemical, fluorogenic H-Leu-NHMec substrate, 1536-well (AID 1445). Details: species or system Plasmodium falciparum 3D7, 3D7.

Another experiment deals with HEK293. As to the kind of experiment: inhibitors of LMP1-driven NF-kB reporter, dose response, cell-based, HEK293, luciferase, cherry-pick (AID 588343). The experiment is classed as functional. The note with it: Homo sapiens.
Experiment [7] deals with Cyclin-dependent kinase 5/CDK5 activator 1 (Homo sapiens, UniProt Q00535). As to the kind of experiment: CDK5/p35 kinase inhibitors, dose response, biochemical, cherry-picked samples, set 2 (AID 504545).
Sequence of Cyclin-dependent kinase 5/CDK5 activator 1 (Q00535 whole entry): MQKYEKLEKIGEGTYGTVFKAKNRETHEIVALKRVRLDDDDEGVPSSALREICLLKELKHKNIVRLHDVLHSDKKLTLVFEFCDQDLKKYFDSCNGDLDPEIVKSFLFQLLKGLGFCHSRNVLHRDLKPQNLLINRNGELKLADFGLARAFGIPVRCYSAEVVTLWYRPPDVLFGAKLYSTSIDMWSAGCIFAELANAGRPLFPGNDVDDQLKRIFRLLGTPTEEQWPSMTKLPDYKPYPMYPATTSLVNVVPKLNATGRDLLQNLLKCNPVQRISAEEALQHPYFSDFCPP
Sequence of Cyclin-dependent kinase 5/CDK5 activator 1 (Q15078 whole entry, further chain): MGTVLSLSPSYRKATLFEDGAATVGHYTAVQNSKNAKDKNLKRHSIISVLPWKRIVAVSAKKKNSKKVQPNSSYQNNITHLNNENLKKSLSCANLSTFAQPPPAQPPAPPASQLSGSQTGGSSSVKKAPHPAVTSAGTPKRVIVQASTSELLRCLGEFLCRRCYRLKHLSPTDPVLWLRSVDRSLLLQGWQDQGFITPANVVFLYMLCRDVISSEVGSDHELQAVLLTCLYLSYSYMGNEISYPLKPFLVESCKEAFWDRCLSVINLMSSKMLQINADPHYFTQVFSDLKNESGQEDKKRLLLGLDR
Experiment [8] deals with T4, Microphthalmia-associated transcription factor (Homo sapiens, UniProt O75030).
T4 sequence (O75030 whole entry): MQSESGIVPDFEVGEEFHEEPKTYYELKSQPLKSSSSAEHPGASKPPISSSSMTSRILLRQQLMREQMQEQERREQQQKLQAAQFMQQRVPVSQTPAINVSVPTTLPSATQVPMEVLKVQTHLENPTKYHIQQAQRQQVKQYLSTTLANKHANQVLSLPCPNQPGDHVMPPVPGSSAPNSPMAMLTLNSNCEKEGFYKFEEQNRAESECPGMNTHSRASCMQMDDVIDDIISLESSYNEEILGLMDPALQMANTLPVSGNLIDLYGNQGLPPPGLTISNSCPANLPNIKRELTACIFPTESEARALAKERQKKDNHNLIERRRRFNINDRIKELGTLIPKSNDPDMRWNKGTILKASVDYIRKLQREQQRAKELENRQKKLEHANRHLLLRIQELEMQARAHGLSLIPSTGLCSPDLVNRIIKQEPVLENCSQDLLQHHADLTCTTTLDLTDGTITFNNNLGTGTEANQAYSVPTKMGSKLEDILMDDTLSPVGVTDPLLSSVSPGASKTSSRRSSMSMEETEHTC
The experiment is described as follows: TRPM1 promoter luciferase signal decrease, dose response, MITF inhibitor project, cell-based, SK-MEL-5, cherry-picked, set 3 (AID 493073).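 Note: SK-MEL-5 melanoma cells with luciferase driven by the MITF target TRPM1 promoter.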 The class given is functional.

The nature of experiment [9]: inhibition of ADP-Glo detection reagents, dose response, artefact control for CDK5 inhibitor project, biochemical, luminescence, cherry-picked samples, set 2 (AID 504546). The experiment is classed as functional.
Experiment [10] addresses T5, Alkaline phosphatase, tissue-nonspecific isozyme (Homo sapiens, UniProt P05186).
T5 sequence (P05186 whole entry): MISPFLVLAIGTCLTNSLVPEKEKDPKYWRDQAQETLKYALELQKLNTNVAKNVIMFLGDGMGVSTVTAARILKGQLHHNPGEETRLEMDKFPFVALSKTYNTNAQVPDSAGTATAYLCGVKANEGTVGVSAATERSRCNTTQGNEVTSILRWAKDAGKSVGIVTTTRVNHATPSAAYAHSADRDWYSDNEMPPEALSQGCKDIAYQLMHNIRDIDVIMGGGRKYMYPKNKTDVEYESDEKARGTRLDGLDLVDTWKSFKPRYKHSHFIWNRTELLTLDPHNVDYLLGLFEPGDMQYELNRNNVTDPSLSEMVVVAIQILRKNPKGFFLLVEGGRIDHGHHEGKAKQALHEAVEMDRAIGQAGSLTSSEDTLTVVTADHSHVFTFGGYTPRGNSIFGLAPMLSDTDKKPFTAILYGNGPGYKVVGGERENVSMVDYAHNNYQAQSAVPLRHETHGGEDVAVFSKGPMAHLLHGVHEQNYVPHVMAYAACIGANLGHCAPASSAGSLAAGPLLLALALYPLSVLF
As to the kind of experiment: human TNAP enzyme inhibitors, SAR follow-up, biochemical, luminescent, dose response (AID 1056).

In experiment [11] the target is Glyceraldehyde-3-phosphate dehydrogenase (Homo sapiens, UniProt P04406).
Sequence of Glyceraldehyde-3-phosphate dehydrogenase (P04406 whole entry): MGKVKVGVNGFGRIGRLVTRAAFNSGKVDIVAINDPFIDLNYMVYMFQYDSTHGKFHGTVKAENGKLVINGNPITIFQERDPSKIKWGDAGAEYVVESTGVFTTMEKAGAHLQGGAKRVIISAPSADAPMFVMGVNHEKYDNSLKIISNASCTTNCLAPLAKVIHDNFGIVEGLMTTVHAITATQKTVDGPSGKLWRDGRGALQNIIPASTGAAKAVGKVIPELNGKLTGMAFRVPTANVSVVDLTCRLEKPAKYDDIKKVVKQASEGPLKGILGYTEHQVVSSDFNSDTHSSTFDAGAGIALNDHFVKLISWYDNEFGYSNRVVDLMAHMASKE
The target in experiment [12] is Alkaline phosphatase, placental type (Homo sapiens, UniProt P05187). As to the kind of experiment: PLAP enzyme inhibitors, confirmation, biochemical, luminescence (AID 1512). The class given is functional.
Sequence of Alkaline phosphatase, placental type (P05187 whole entry): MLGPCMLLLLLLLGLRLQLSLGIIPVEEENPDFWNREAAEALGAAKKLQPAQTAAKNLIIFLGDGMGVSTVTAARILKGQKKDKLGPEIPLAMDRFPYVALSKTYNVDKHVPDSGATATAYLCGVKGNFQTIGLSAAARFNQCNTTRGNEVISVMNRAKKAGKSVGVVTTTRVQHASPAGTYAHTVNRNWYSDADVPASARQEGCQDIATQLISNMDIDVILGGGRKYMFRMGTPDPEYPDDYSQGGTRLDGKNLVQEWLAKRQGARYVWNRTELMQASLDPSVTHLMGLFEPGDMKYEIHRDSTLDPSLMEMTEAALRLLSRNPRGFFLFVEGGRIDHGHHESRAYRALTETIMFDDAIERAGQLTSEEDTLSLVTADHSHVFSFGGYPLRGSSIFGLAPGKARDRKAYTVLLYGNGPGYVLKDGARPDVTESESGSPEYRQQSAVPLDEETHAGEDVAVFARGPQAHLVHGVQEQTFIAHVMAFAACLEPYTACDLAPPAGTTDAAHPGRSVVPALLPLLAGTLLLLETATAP

Activity calls are given as the source filed them.
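Throughout, for IC50 Mean: confirmatory dose-response retesting of NadD inhibitor hits first found in an ultra-high-throughput screen.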

T2 sequence (P65502 whole entry): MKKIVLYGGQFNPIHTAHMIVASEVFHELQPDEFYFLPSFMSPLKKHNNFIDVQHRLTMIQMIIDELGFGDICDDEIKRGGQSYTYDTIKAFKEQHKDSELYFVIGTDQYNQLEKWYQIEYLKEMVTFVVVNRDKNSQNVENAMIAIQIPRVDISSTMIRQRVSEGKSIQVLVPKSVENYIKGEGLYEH
Sequence of Genome polyprotein (P29990 2492-3391 limits assumed): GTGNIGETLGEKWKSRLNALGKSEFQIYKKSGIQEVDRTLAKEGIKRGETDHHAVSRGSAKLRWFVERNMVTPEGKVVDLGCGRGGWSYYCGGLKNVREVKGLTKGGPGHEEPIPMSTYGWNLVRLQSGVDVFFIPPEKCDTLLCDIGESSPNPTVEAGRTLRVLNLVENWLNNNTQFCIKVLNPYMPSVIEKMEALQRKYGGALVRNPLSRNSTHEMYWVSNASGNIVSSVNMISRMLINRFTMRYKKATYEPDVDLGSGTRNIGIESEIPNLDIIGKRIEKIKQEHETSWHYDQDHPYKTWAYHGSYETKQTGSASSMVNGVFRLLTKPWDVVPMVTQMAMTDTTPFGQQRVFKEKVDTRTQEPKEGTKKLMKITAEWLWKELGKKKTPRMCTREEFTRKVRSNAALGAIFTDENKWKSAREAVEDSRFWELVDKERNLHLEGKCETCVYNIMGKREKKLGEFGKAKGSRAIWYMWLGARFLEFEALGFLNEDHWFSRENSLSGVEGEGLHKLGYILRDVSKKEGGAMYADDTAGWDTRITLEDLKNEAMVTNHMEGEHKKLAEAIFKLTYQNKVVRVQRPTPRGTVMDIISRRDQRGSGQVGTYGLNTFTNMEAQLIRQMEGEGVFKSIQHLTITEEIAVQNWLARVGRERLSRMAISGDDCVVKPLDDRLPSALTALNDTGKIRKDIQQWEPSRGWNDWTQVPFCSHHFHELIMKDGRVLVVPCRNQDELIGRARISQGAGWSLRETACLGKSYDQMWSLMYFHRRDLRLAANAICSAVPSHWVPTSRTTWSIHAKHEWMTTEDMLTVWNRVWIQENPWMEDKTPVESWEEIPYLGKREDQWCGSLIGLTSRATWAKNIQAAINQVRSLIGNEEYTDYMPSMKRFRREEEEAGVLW

In the case of `O=C(O)CCN1C(=O)/C(=C2\C(=O)N(Cc3ccc(F)cc3)c3ccccc32)SC1=S`, the IC50 was 41.2 µM (active) on Genome polyprotein, 3.03 µM (active) in [1] and > 99 µM (inactive) in experiment [2].

Take `Cc1ccc(C(=O)Nc2cc(Cl)ccc2-n2cncn2)o1`: the IC50 was 85 µM (active) in experiment [3] and 20.5 µM (active) in experiment [4].

For the compound `CCc1nnc(NS(=O)(=O)c2ccc(NC(=S)NC(=O)/C=C/c3ccc(F)cc3)cc2)s1`, the IC50 in experiment [5] was 4.58 µM (active); at Genome polyprotein, 39.3 µM (active); in experiment [6] it was 45.4 µM (active); in experiment [2], 18.3 µM (active); at Aminopeptidase N, 76.7 µM (active).

For the compound `N=C(NOC(=O)c1ccccc1)c1ccccn1`, the AC50 in the experiment on HEK293 is 8.6 µM (active); in experiment [7], 20.6 µM (active); in experiment [8] it was 11.9 µM (active); in experiment [9] it was 37.5 µM (active).

On to `Cc1n[nH]c2c1C(=O)CC(C)(C)C2`, for which the figures for the IC50 in experiment [10], in experiment [11] and in experiment [12] were 19.9 µM (active), > 100 µM (not active) and > 100 µM (inactive), respectively.
